Source: patent publication US9226928B2, “Spirocyclic isoxazoline parasiticidal combinations” (Zoetis Services LLC, priority 2012, dated 2016)
Read-outs that look alike come from different tables or passages of the source.

Tests used:
[1] = system: Dirofilaria immitis microfilariae (MF), Michigan strain; test: In vitro motility assay, D. immitis microfilariae
Description: Antiparasitic compounds were dissolved in DMSO and were spotted into the well of a 384 well microtiter plate. Nematodes in a buffered solution were added to the plates and motility measured at 96 hours for the H. contortus strains and 72 hours for D. immitis. […] MED was subjective based on visual assessment using light microscopy and was the lowest dose to cause a significant decrease in motility. Concentrations at ½ log below the MED were used alone and in combination and were read on the LemnaTec Scanalyzer to provide a quantitative percent motility compared to the negative control.
Material and method for the Dirofilaria immitis in vitro assay: Dirofilaria immitis MF were purified from microfilaremic canine blood by erythrocyte lysis and filtration and maintained in a cell culture media fortified with fetal bovine serum and antibiotics. […] The motility assessment was performed after 72 hours of incubation at 37° C. and 5% CO2 on a LemnaTec Scanalyzer which determined motility of the MF by image analysis.

[2] = system: flea (C. felis); test: In-vitro flea feeding assay; assay type: cell-based, Ctenocephalides felis; details: for lowest MED alone (lowest dose to cause mortality ≧50%) / control MED dose levels alone (triple combination assay): compound alone; for lowest MED alone (lowest dose to cause mortality ≧50%): 24 hours blood feeding; for control MED dose levels alone (triple combination assay): controls of the triple combination assay
[3] = system: tick (O. turicata, Zoetis strain); test: In-vitro tick feeding assay; assay type: cell-based, Ornithodoros turicata; details: for MED (lowest dose to cause paralysis ≧50%): at 24, 28, and 72 hours post feeding
[4] = system: Haemonchus contortus L3 susceptible strain; test: In vitro motility assay, H. contortus L3 susceptible strain; assay type: cell-based
[5] = system: C. felis fleas; test: Efficacy against fleas in dogs; details: all time points (Days 1-35); same groups
Description: Each dog was infested with approximately 100 unfed viable adult C. felis fleas on Days −1, 6, 13, 20, 27, and 34. Efficacy was assessed by comb counts of live fleas on Days 1, 7, 14, 21, 28, and 35. Efficacy was determined as the % reduction in geometric mean live flea counts versus placebo.

[6] = system: D. immitis (L3 inoculation, adult worm recovery); test: Prevention of heartworm disease in dogs; details: in vivo, po
[7] = Combination pharmacokinetics in fed dogs; details: dog, in vivo, sampling to 28 days
[8] = minimum efficacious dose, visual motility assessment, 72 hours
[9] = vs untreated control, 72 hours, LemnaTec, moxidectin 3.3 μM, pyrantel 33 μM, Compound A 10 μM, alone or combined (triple row prints 100 μM Compound A)
[10] = minimum efficacious dose, visual motility assessment, 96 hours
[11] = vs untreated control, 96 hours, LemnaTec, moxidectin 0.1 μM, pyrantel 10 μM, Compound A 100 μM, alone or combined

SMILES | D. immitis MED [1, 8] | % Motility [1, 9] | lowest MED alone (lowest dose to cause mortality ≧50%) [2] | control MED dose levels alone (triple combination assay) [2] | MED (lowest dose to cause paralysis ≧50%) [3] | H. contortus L3 susceptible MED [4, 10] | % Motility [4, 11] | effect on fleas ([2]; highest dose tested (300 mM)) | effect on ticks ([3]; at a rate of 3 or 30 ug/mL) | Percentage reductions in geometric and arithmetic mean live flea counts compared with placebo [5] | geometric mean adult D. immitis worm count [6] | % Motility [1] | D. immitis MED [1] | % Motility [4] | H. contortus L3 susceptible MED [4] | AUC ([7]; dosed alone: Compound A 2 mg/kg, moxidectin 0.25 μg/kg, pyrantel pamoate 5 mg/kg) | AUC ([7]; the three compounds dosed simultaneously)
CO/N=C1\C[C@]2(C[C@@H]3C[C@@H](C/C=C(\C)C[C@@H](C)/C=C/C=C4\CO[C@@H]5[C@H](O)C(C)=C[C@@H](C(=O)O3)[C@]45O)O2)O[C@H](/C(C)=C/C(C)C)[C@H]1C [Moxidectin, moxidectin] | 10 µM | 62.0% | 0.01 mM | 10 mM | 0.03 µg/mL | 0.3 µM | 95.0% | – | – | – | – | – | – | – | – | – | –
CN1CCCN=C1/C=C/c1cccs1 [Pyrantel, pyrantel pamoate] | 100 µM | 77.8% | – | > 300 mM | – | 33 µM | 95.6% | no effect | no effect | – | – | – | – | – | – | – | –
CS(=O)(=O)CC(=O)N1CC2(C1)OCc1cc(C3=NO[C@@](c4cc(Cl)c(F)c(Cl)c4)(C(F)(F)F)C3)ccc12 [Compound A, (S)-1-(5′-(5-(3,5-dichloro-4-fluorophenyl)-5-(trifluoromethyl)-4,5-dihydroisoxazol-3-yl)-3′H-spiro[azetidine-3,1′-isobenzofuran]-1-yl)-2-(methylsulfonyl)ethanone] | – | – | 0.0001 mM | 0.3 mM | 0.01 µg/mL | – | – | – | – | 100% | 30.3 worms recovered from each dog | 50.9% | 33 µM | 76.0% | >100 µM | 202 µg·h/mL | 206 µg·h/mL
